Measured values: BindingDB's records for doi:10.1021/np000120k (The University of Tokyo, 2000)
Converted amounts (≈) assume the structure as drawn. Starred links: 1 amine or outer side, 2 acyl side, 3 side chain; linkers in the order of their positions; H or OH if unused. Positions of bridges follow the written chain, without caps; N, C: chain ends. Non-standard residues stand in square brackets, D forms with d. Residues, ends and D or L forms follow the SMILES beside them. NMehTyr = CN[C@@H](CCc1ccc(O)cc1)C(=O)O; hTyr = N[C@@H](CCc1ccc(O)cc1)C(=O)O; CO = O=C([*:1])[*:2]

Target: T1, Carboxypeptidase A1 (Homo sapiens, UniProt P15085)
T1 sequence (P15085 whole entry): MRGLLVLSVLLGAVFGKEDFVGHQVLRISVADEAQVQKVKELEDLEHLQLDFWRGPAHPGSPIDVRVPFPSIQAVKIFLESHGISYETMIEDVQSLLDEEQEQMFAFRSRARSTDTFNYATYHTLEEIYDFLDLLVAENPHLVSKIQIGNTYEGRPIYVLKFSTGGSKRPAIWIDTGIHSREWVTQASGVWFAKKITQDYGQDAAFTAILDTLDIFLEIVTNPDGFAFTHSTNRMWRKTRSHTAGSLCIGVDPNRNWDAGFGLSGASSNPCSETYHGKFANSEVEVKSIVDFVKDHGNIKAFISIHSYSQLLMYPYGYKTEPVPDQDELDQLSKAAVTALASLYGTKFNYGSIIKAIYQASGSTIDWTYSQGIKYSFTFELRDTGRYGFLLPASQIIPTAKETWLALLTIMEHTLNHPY
Test: Inhibition of carboxypeptidase A

For `CC[C@H](C)[C@@H]1NC(=O)[C@H](NC(=O)N[C@@H](Cc2ccc(O)cc2)C(=O)O)CCCCNC(=O)[C@H]([C@@H](C)CC)NC(=O)[C@H](CCc2ccc(O)cc2)N(C)C(=O)[C@H](CCc2ccc(O)cc2)NC1=O` [Anabaenopeptin G] ({Tyr-CO}-[dK]I[hTyr][NMehTyr]I; lactam 1-C), which IC50 is on record?
Its IC50 is 7 ng/mL (≈ 7.53 nM).
